Where a name gives a salt, the structure may show the parent alone.
Tested on: Conscious guinea pigs exposed to an aerosol of methacholine
Test: Methacholine aerosol collapse time in conscious guinea pigs (anticholinergic test)
Assay type: in vivo
Conditions: 25 mg/kg intraperitoneally, 10 minutes methacholine aerosol; for (Minutes Protection): collapse time, Control 1.9 to 2.0; for (Minutes Protection), given in words: time not given
Experimental: Conscious guinea pigs, six at a time, are put into a sealed chamber and exposed for 10 minutes to an aerosol of methacholine.

SMILES | (Minutes Protection) | (Minutes Protection), given in words
Cc1cc2oc(=O)c3c(c2cc1C)CCN(CCN1CC2CCC(CC2)C1)C3 [R1=Me, R2=Me, R3=H, X=drawing 10, 3-[2-(3-Azabicyclo[3.2.2]non-3-yl)ethyl]-1,2,3,4-tetrahydro-8,9-dimethyl-5H-[1]benzopyrano[3,4-c]pyridin-5-one] | 5.1 min | 
COc1cc2oc(=O)c3c(c2cc1OC)CCN(CCN1CC2CCCC(C2)C1)C3 [R1=MeO, R2=MeO, R3=H, X=drawing 12, 3-[2-(3-Azabicyclo[3.3.1]non-3-yl)ethyl]-1,2,3,4-tetrahydro-8,9-dimethoxy-5H-[1]benzopyrano[3,4-c]pyridin-5-one] | 6.6 min | 
COc1cc2oc(=O)c3c(c2cc1OC)CCN(CCN1CC2CCC(CC2)C1)C3.Cl.Cl [R1=MeO, R2=MeO, R3=H, X=drawing 10, 3-[2-(3-Azabicyclo[3.2.2]non-3-yl)ethyl]-1,2,3,4-tetrahydro-8,9-dimethoxy-5H-[1]benzopyrano[3,4-c]pyridin-5-one dihydrochloride] |  | Active
Br.Br.O=c1oc2cc(O)c(O)cc2c2c1CN(CCN1CC3CCC(CC3)C1)CC2 [R1=OH, R2=OH, R3=H, X=drawing 10, 3-[2-(3-Azabicyclo[3.2.2]non-3-yl)ethyl]-1,2,3,4-tetrahydro-8,9-dihydroxy-5H-[1]benzopyrano[3,4-c]pyridin-5-one dihydrobromide] | 2.1 min | 
Cc1ccc2c3c(c(=O)oc2c1)CN(CCN1CC2CCC(CC2)C1)CC3 [R1=H, R2=Me, R3=H, X=drawing 10, 3-[2-(3-Azabicyclo[3.2.2]non-3-yl)ethyl]-1,2,3,4-tetrahydro-8-methyl-5H-[1]benzopyrano[3,4-c]pyridin-5-one] | 5.0 min | 
COc1ccc2c3c(c(=O)oc2c1OC)CN(CCN1CC2CCC(CC2)C1)CC3.Cl.Cl [R1=H, R2=MeO, R3=MeO, X=drawing 10, 3-[2-(3-Azabicyclo[3.2.2]non-3-yl)ethyl]-1,2,3,4-tetrahydro-7,8-dimethoxy-5H-[1]benzopyrano[3,4-c]pyridin-5-one dihydrochloride] | 3.0 min | 
COc1ccc2c3c(c(=O)oc2c1)CN(CCN1CC2CCCC(C2)C1)CC3 [R1=H, R2=MeO, R3=H, X=drawing 12, 3-[2-(3-Azabicyclo[3.3.1]non-3-yl)ethyl]-1,2,3,4-tetrahydro-8-methoxy-5H-[1]benzopyrano[3,4-c]pyridin-5-one] | 7.3 min | 
O=c1oc2cc3c(cc2c2c1CN(CCN1CC4CCC(CC4)C1)CC2)OCO3 [R1+R2=OCH2O, R3=H, X=drawing 10, 3-[2-(3-Azabicyclo[3.2.2]non-3-yl)ethyl]-1,2,3,4-tetrahydro-5H-[1,3]benzodioxolo[5',6':5,6]pyrano[3,4-c]pyridin-5-one] | 2.3 min | 
CCc1ccc2c3c(c(=O)oc2c1)CN(CCN1CC2CCC(CC2)C1)CC3.Cl.Cl [R1=H, R2=Et, R3=H, X=drawing 10, 3-(2-(3-Azabicyclo[3,2,2]non-3-yl)ethyl]-8-ethyl-1,2,3,4-tetrahydro-5H-benzopyrano[3,4-c]pyridin-5-one, dihydrochloride] | 6.8 min | 
Cc1cc2oc(=O)c3c(c2cc1NC(=O)c1ccccc1)CCN(CCN1CC2CCC(CC2)C1)C3 [R1=NHCOPh, R2=Me, R3=H, X=drawing 10, N-{3-[2-(3-Azabicyclo[3.2.2]non-3-yl)ethyl]-1,3,4,5-tetrahydro-8-methyl-5-oxo-2H-[1]benzopyrano[3,4-c]pyridin-9-yl}-benzamide] | 3.8 min | 
Cc1ccc2c3c(c(=O)oc2c1)CN(CCN1CC2CCCC(C2)C1)CC3 [R1=H, R2=Me, R3=H, X=drawing 12, 3-[2-(3-Azabicyclo[3.3.1]non-3-yl)ethyl]-1,2,3,4-tetrahydro-8-methyl-5H-[1]benzopyrano[3,4-c]pyridin-5-one] | 3.1 min | 
Cc1cc2oc(=O)c3c(c2cc1Cl)CCN(CCN1CC2CCCC(C2)C1)C3 [R1=Cl, R2=Me, R3=H, X=drawing 12] | 2.6 min | 
COc1ccc2c3c(c(=O)oc2c1)CN(CCN1CC2CCC(CC2)C1)CC3.Cl.Cl [R1=H, R2=MeO, R3=H, X=drawing 10, 3-[2-(3-Azabicyclo[3.2.2]non-3-yl)ethyl]-1,2,3,4-tetrahydro-8-methoxy-5H-[1]benzopyrano[3,4-c]pyridin-5-one, dihydrochloride] | 6.0 min | 
O=c1oc2ccccc2c2c1CN(CCN1CC3CCCC(C3)C1)CC2 [R1=H, R2=H, R3=H, X=drawing 12, 3-[2-(3-Azabicyclo[3.3.1]non-3-yl)ethyl]-1,2,3,4-tetrahydro-5H-[1]benzopyrano[3,4-c]pyridin-5-one] | 3.3 min | 
CCOc1cc2oc(=O)c3c(c2cc1OCC)CCN(CCN1CC2CCC(CC2)C1)C3 [R1=EtO, R2=EtO, R3=H, X=drawing 10, 3-[2-(3-Azabicyclo[3.2.2]non-3-yl)ethyl]-1,2,3,4-tetrahydro-8,9-diethoxy-5H-[1]benzopyrano[3,4-c]pyridin-5-one] | 6.3 min | 
COc1ccc2c3c(c(=O)oc2c1)CN(CCN1CC2CCC1CC2)CC3 [R1=H, R2=MeO, R3=H, X=drawing 11, 3-[2-(2-Azabicyclo[2.2.2]oct-2-yl)ethyl]-1,2,3,4-tetrahydro-8-methoxy-5H-[1]benzopyrano[3,4-c]pyridin-5-one] | 10.0 min | 
CC(C)c1ccc2c3c(c(=O)oc2c1)CN(CCN1CC2CCC(CC2)C1)CC3.Cl.Cl [R1=H, R2=CHMe2, R3=H, X=drawing 10, 3-[2-(3-Azabicyclo[3.2.2]non-3-yl)ethyl]-1,2,3,4-tetrahydro-8-(1-methylethyl)-5H-[1]benzopyrano[3,4-c]pyridin-5-one dihydrochloride] | 6.2 min | 
CC(C)(C)c1ccc2c3c(c(=O)oc2c1)CN(CCN1CC2CCC(CC2)C1)CC3.Cl.Cl [R1=H, R2=CMe3, R3=H, X=drawing 10, 3-[2-(3-Azabicyclo[3.2.2]non-3-yl)ethyl]-8-(1,1-dimethylethyl)-1,2,3,4-tetrahydro-5H-[1]benzopyrano[3,4-c]pyridin-5-one, dihydrochloride] | 3.4 min | 
O=c1oc2cc(O)ccc2c2c1CN(CCN1CC3CCC(CC3)C1)CC2 [R1=H, R2=OH, R3=H, X=drawing 10] | 6.1 min | 
COc1cc2oc(=O)c3c(c2cc1OC)CCN(CCN1CC2CCC1CC2)C3 [R1=MeO, R2=MeO, R3=H, X=drawing 11, 3-[2-(2-Azabicyclo[2.2.2]oct-2-yl)ethyl]-1,2,3,4-tetrahydro-8,9-dimethoxy-5H-[1]benzopyrano[3,4-c]pyridine-5-one] | 7.6 min | 
Cc1cc2oc(=O)c3c(c2cc1Cl)CCN(CCN1CC2CCC(CC2)C1)C3 [R1=Cl, R2=Me, R3=H, X=drawing 10, 3-[2-(3-Azabicyclo[3.2.2]non-3-yl)ethyl]-9-chloro-1,2,3,4-tetrahydro-8-methyl-5H-[1]benzopyrano[3,4-c]pyridin-5-one] | 2.1 min | 
Cc1cc2oc(=O)c3c(c2cc1N)CCN(CCN1CC2CCC(CC2)C1)C3 [R1=NH2, R2=Me, R3=H, X=drawing 10, 9-Amino-3-[2-(3-azabicyclo[3.2.2]non-3-yl)ethyl]-1,2,3,4-tetrahydro-8-methyl-5H-[1]benzopyrano[3,4-c]pyridin-5-one] | 1.9 min | 
Cc1ccc2c3c(c(=O)oc2c1)CN(CCN1CC2CCC1CC2)CC3 [R1=H, R2=Me, R3=H, X=drawing 11, 3-[2-(2-Azabicyclo[2.2.2]oct-2-yl)ethyl]-1,2,3,4-tetrahydro-8-methyl-5H-[1]benzopyrano[3,4-c]pyridin-5-one] | 2.3 min | 
CC(=O)Nc1cc2c3c(c(=O)oc2cc1C)CN(CCN1CC2CCC(CC2)C1)CC3 [R1=NHCOCH3, R2=Me, R3=H, X=drawing 10, N-{3-[2-(3-Azabicyclo[3.2.2]non-3-yl)ethyl]-1,2,3,4-tetrahydro-8-methyl-5-oxo-2H-[1]benzopyrano[3,4-c]pyridin-9-yl}-acetamide] |  | Active
O=c1oc2ccccc2c2c1CN(CCN1CC3CCC(CC3)C1)CC2 [R1=H, R2=H, R3=H, X=drawing 10, 3-[2-(3-Azabicyclo[3.2.2]non-3-yl)ethyl]-1,2,3,4-tetrahydro-5H-[1]benzopyrano[3,4-c]pyridin-5-one] | 5.2 min | 
O=c1oc2c(ccc3ccccc32)c2c1CN(CCN1CC3CCC(CC3)C1)CC2 [R1=H, R2+R3=CH CHCHCH, X=drawing 10, 2-[2-(3-Azabicyclo[3.2.2]non-3-yl)ethyl]-1,2,3,4-tetrahydro-12H-naphtho[2',1',:5,6]pyrano[3,4-c]pyridin-12-one dihydrochloride] | 2.7 min | 
Cl.Cl.O=c1oc2cc(-c3ccccc3)ccc2c2c1CN(CCN1CC3CCC(CC3)C1)CC2 [R1=H, R2=Ph, R3=H, X=drawing 10, 3-[2-(3-Azabicyclo[3.2.2]non-3-yl)ethyl]-1,2,3,4-tetrahydro-8-phenyl-5H-[1]benzopyrano[3,4-c]pyridin-5-one, dihydrochloride] | 2.1 min | 
Cc1cc2oc(=O)c3c(c2cc1[N+](=O)[O-])CCN(CCN1CC2CCC(CC2)C1)C3 [R1=NO2, R2=Me, R3=H, X=drawing 10, 3-[2-(3-Azabicyclo[3.2.2]non-3-yl)ethyl]-1,2,3,4-tetrahydro-8-methyl-9-nitro-5H-[1]benzopyrano[3,4-c]pyridin-5-one] | 1.9 min | 

Reference: patent publication US4404138A, “3-[2-(Azabicyclo) ethyl]-1,2,3,4-tetrahydro-5H-[1]benzopyrano[3,4-c]pyridin-5-ones” (Warner-Lambert Company, priority 1982, dated 1983)
